We go through 17 molecules from patent US9249106B2, “Substituted hydrazide compounds and use thereof” (Shenyang J & Health Pharmaceutical Co., Ltd., priority 2009, dated 2016).

Usually IC50 stands for the midpoint of a concentration-inhibition curve.

Holding throughout (assay): Antitumor activity assay in vitro (MTT)
Holding throughout (assay type): cell-based

In assay [1] the test system is A549 (human non-small cell lung cancer). To be noted: A549 cells, 72 hours, Bliss method; for IC50: Homo sapiens. Here is the method: (§1) (1) Five cell strains, SK-N-SH (human neuroblastoma cell), NCI-H226 (human lung cancer cell), Bel7402 (human liver cancer cell), A549 (human non-small cell lung cancer), and MCF7 (human breast cancer cell), were thawed and stably passaged for two or three times, respectively, and then digested with trypsin solution (0.25%) so as to be removed from the bottom of culture flasks. The digested cell solution was poured into a centrifuge tube, to which culture media was added to stop the digestion. The centrifuge tube was centrifuged at 1300 r/min for 3 min, the supernatant was removed gently and then 5 mL culture media was added. The cells were pipetted and mixed homogeneously. 10 μL cell suspension was taken into a cell counting plate for counting, wherein the cell concentration was adjusted to 10^4 cells/well. Each well of the 96-well plates, except for A1 well as blank control, contained 100 μL cell suspension. The 96-well plates were placed in an incubator and cultivated for 24 hours.
(§2) (2) 50 μL dimethyl sulfoxide was used to dissolve the test samples, and then a suitable amount of culture media was added so as to reach a final concentration of 2 mg/mL. Then the samples were diluted to 100, 20, 4, 0.8, 0.16 μg/mL in a 24-well plate, respectively. […] The 96-well plates were placed in an incubator and cultivated for 72 hours.
(§3) (3) The culture media containing the compounds in the 96-well plates was discarded, and the cells were washed with phosphate buffered solution (PBS) twice. Each well was added with 100 μL MTT (tetrazole) (0.5 mg/mL), and then placed in an incubator to incubate for 4 hours, after which MTT solution was discarded and 100 μL dimethyl sulfoxide was added thereto. The reaction product of survival cells with MTT, i.e. formazan, was dissolved completely by oscillation on a magnetic oscillator, then placed into a microplate reader to measure the results, and the IC50 values of compounds could be deduced by Bliss method. The control, N′-[(2-hydroxy-3-allyl)phenylmethylene]-2-(4-benzylpiperazin-1-yl)acethydrazide(PAC-1), was produced according to the method of patent WO2008/134474 A2.

Assay [2] deals with Bel7402 (human liver cancer cell). As to conditions: 72 hours, Bliss method; for IC50 Bel7402: Bel7402 cells; for IC50: Homo sapiens, Bel-7402, Bel7402 cells. Here is the method: as §1, §2, §3
In assay [3] the test system is MCF7 (human breast cancer cell). As to conditions: MCF7 cells, 72 hours, Bliss method; for IC50: Homo sapiens. Here is the method: as §1, §2, §3
The subject of assay [4] is NCI-H226 (human lung cancer cell). To be noted: NCI-H226 cells, 72 hours, Bliss method; for IC50: Homo sapiens, read-out: IC50 NCI-226. On the procedure: as §1, §2, §3
Assay [5] relates to SK-N-SH (human neuroblastoma cell). To be noted: SK-N-SH cells, 72 hours, Bliss method; for IC50: Homo sapiens. On the procedure:
as §1, §2, §3

Converted amounts (≈) assume the structure as drawn. Where a name gives a salt, the structure may show the parent alone.

For `Cl.O=C(NN=Cc1ccc(OCc2ccccc2)cc1O)c1ccc2nc[nH]c2c1` [Example 13, N′-[(2-hydroxy-4-benzyloxy)phenylmethylene]-1H-benzo[d]imidazole-6-formhydrazide hydrochloride], the “IC50 A549” value in assay [1] came out at 2.6 µg/mL. Moreover, the “IC50 Bel7402” value in assay [2] is 3.7 µg/mL. In addition, the “IC50 MCF7” value in assay [3] was found to be 1.8 µg/mL. Also, the “IC50 NCI-226” value in assay [4] worked out at 2.4 µg/mL. Further, the “IC50 SK” value in assay [5] turned out to be 1.1 µg/mL.
For `Cl.O=C(NN=Cc1cc(OCc2ccc(Cl)cc2)ccc1O)c1ccc2nc[nH]c2c1` [Example 12, N′-{[2-hydroxy-5-(4-chlorobenzyloxy)]phenylmethylene}-1H-benzo[d]imidazole-6-formhydrazide hydrochloride] the same measures were 5.8 µg/mL, 3.3 µg/mL, 2.1 µg/mL, 1.7 µg/mL and 3.0 µg/mL.
“N′-{[2-hydroxy-3-(1-methyl-2-allyl)]phenylmethylene}-1H-benzo[d]imidazole-6-formhydrazide hydrochloride [Example 10]”: the “IC50 A549” value in assay [1] was 1.2 µg/mL. Also, in assay [2], the “IC50 Bel7402” value came out at 3.3 µg/mL. Moreover, the “IC50 MCF7” value in assay [3] amounted to 3.8 µg/mL. The “IC50 NCI-226” value in assay [4] came out at 1.0 µg/mL. In addition, the “IC50 SK” value in assay [5] is 1.1 µg/mL.
On the same counts, the results for `Cc1cc(C)c(C=NNC(=O)c2ccc3nc[nH]c3c2)c(O)c1C.Cl` [Example 6, N′-[(2-hydroxy-3,4,6-trimethyl)phenylmethylene]-1H-benzo[d]imidazole-6-formhydrazide hydrochloride] are 3.1 µg/mL, 2.6 µg/mL, 3.2 µg/mL, 1.7 µg/mL and 1.8 µg/mL.
As for `Cl.O=C(NN=Cc1ccc(OCc2ccc(Cl)cc2)cc1O)c1ccc2nc[nH]c2c1` [Example 9, N′-{[2-hydroxy-4-(4-chlorobenzyloxy)]phenylmethylene}-1H-benzo[d]imidazole-6-formhydrazide hydrochloride], the “IC50 A549” value in assay [1] was determined as 0.9 µg/mL. Also, the “IC50 Bel7402” value in assay [2] was 1.5 µg/mL. Besides, the “IC50 MCF7” value in assay [3] turned out to be 0.6 µg/mL. Besides, the “IC50 NCI-226” value in assay [4] came to 0.5 µg/mL. The “IC50 SK” value in assay [5] was determined as 0.2 µg/mL.
Regarding `O=C(NN=Cc1c(O)ccc2ccccc12)c1ccc2nc[nH]c2c1` [Example 3, N′-[(2-hydroxy-1-naphthyl)methylene]-1H-benzo[d]imidazole-6-formhydrazide hydrochloride], the IC50 in assay [1] turned out to be 0.7 µg/mL; in assay [2] it was 2.5 µg/mL; in assay [3] it was 1.2 µg/mL; in assay [4], 1.1 µg/mL; in assay [5] it was 3 µg/mL.
On the same counts, the results for `C=CCN1C(=O)NC(=O)C(C=NNC(=O)c2ccc3nc[nH]c3c2)C1=O` (stereo not shown) [Example 14, N′-[(1-allyl-2,4,6-pyrimidinetrione-5-yl)methylene]-1H-benzo[d]imidazole-6-formhydrazide] are 10 µg/mL (≈ 28.2 µM), 2.2 µg/mL (≈ 6.21 µM), 1.7 µg/mL (≈ 4.8 µM), 2.5 µg/mL (≈ 7.06 µM) and 0.9 µg/mL (≈ 2.54 µM).
As to `O=C(NN=Cc1ccccc1O)c1ccc2nc[nH]c2c1` [Example 11, N′-[(2-hydroxy)phenylmethylene]-1H-benzo[d]imidazole-6-formhydrazide hydrochloride], the IC50 in assay [1] stood at 10 µg/mL; in assay [2], 3.2 µg/mL; in assay [3], 2.3 µg/mL; in assay [4] it was 2.3 µg/mL; in assay [5] it was 2.7 µg/mL.
Take `C=CCc1cccc(C=NNC(=O)c2ccc3nc[nH]c3c2)c1O.Cl` [Example 4, N′-[(2-hydroxy-3-allyl)phenylmethylene]-1H-benzo[d]imidazole-6-formhydrazide hydrochloride]: in assay [1], the “IC50 A549” value was found to be 2 µg/mL. Besides, in assay [2], the “IC50 Bel7402” value was found to be 1.3 µg/mL. The “IC50 MCF7” value in assay [3] worked out at 3.3 µg/mL. The “IC50 NCI-226” value in assay [4] worked out at 0.2 µg/mL. Besides, in assay [5], the “IC50 SK” value came to 1.3 µg/mL.
On to `Cc1cc(C)c(C=NNC(=O)Cc2nc3ccccc3[nH]2)c(O)c1C.Cl` [Example 23, N′-[(2-hydroxy-3,4,6-trimethyl)phenylmethylene]-1H-benzo[d]imidazole-2-acethydrazide hydrochloride], for which, in assay [1], the “IC50 A549” value amounted to 2.4 µg/mL. The “IC50 Bel7402” value in assay [2] was determined as 3.1 µg/mL. The “IC50 MCF7” value in assay [3] came out at 2.6 µg/mL. The “IC50 NCI-226” value in assay [4] came to 0.3 µg/mL. In addition, the “IC50 SK” value in assay [5] came out at 0.3 µg/mL.
Consider `Cl.O=C(NN=Cc1cc(OCc2cccc(Cl)c2)ccc1O)c1ccc2nc[nH]c2c1` [Example 18, N′-{[2-hydroxy-5-(3-chlorobenzyloxy)]phenylmethylene}-1H-benzo[d]imidazole-6-formhydrazide hydrochloride], for which, in assay [1], the “IC50 A549” value amounted to 1.5 µg/mL. In assay [2], the “IC50 Bel7402” value turned out to be 3.1 µg/mL. The “IC50 MCF7” value in assay [3] came out at 2.7 µg/mL. Also, in assay [4], the “IC50 NCI-226” value came out at 2.3 µg/mL. For the same molecule, the “IC50 SK” value in assay [5] came out at 1.7 µg/mL.
On to `Cc1ccc(C(C)C)c(C=NNC(=O)c2ccc3nc[nH]c3c2)c1O.Cl` [Example 8, N′-[(2-hydroxy-3-methyl-6-isopropyl)phenylmethylene]-1H-benzo[d]imidazole-6-formhydrazide hydrochloride], for which, in assay [1], the “IC50 A549” value is 1.5 µg/mL. For the same molecule, the “IC50 Bel7402” value in assay [2] was determined as 2.4 µg/mL. In addition, the “IC50 MCF7” value in assay [3] turned out to be 1.7 µg/mL. Besides, the “IC50 NCI-226” value in assay [4] amounted to 1.0 µg/mL. In assay [5], the “IC50 SK” value was 3.0 µg/mL.
`Cc1ccc(O)c(C=NNC(=O)c2ccc3nc[nH]c3c2)c1.Cl` [Example 7, N′-[(2-hydroxy-5-methyl)phenylmethylene]-1H-benzo[d]imidazole-6-formhydrazide hydrochloride]: in assay [1], the “IC50 A549” value was 12 µg/mL. The “IC50 Bel7402” value in assay [2] came out at 5.4 µg/mL. Further, the “IC50 MCF7” value in assay [3] turned out to be 1.9 µg/mL. Also, the “IC50 NCI-226” value in assay [4] was found to be 2.7 µg/mL. Further, in assay [5], the “IC50 SK” value was 3.2 µg/mL.
For `Cl.O=C(Cc1nc2ccccc2[nH]1)NN=Cc1cc(C(=O)CCl)ccc1O` [Example 22, N′-[(2-hydroxy-5-chloroacetyl)phenylmethylene]-1H-benzo[d]imidazole-2-acethydrazide hydrochloride], the “IC50 A549” value in assay [1] is 1.7 µg/mL. The “IC50 Bel7402” value in assay [2] is 0.5 µg/mL. Also, the “IC50 MCF7” value in assay [3] is 3.4 µg/mL. The “IC50 NCI-226” value in assay [4] stood at 0.8 µg/mL. The “IC50 SK” value in assay [5] came to 1.0 µg/mL.
`CC(C)(C)c1cc(C=NNC(=O)c2ccc3nc[nH]c3c2)c(O)c(C(C)(C)C)c1.Cl` [Example 1, N′-[(2-hydroxy-3,5-di-tert-butyl)phenylmethylene]-1H-benzo[d]imidazole-6-formhydrazide hydrochloride]: in assay [1], the “IC50 A549” value was 0.4 µg/mL. Besides, the “IC50 Bel7402” value in assay [2] turned out to be 0.56 µg/mL. In addition, in assay [3], the “IC50 MCF7” value stood at 0.8 µg/mL. Further, the “IC50 NCI-226” value in assay [4] is 0.07 µg/mL. Moreover, the “IC50 SK” value in assay [5] was found to be 0.08 µg/mL.
On the same counts, the results for `Cc1ccc(C=NNC(=O)c2ccc3nc[nH]c3c2)c(O)c1.Cl` [Example 2, N′-[(2-hydroxy-4-methyl)phenylmethylene]-1H-benzo[d]imidazole-6-formhydrazide hydrochloride] are 1.9 µg/mL, 2.4 µg/mL, 1.8 µg/mL, 1.0 µg/mL and 2.1 µg/mL.
For `Cl.O=C(Cc1nc2ccccc2[nH]1)NN=Cc1cc(OCc2ccccc2)ccc1O` [Example 25, N′-[(2-hydroxy-5-benzyloxy)phenylmethylene]-1H-benzo[d]imidazole-2-acethydrazide hydrochloride] the same measures were 4.1 µg/mL, 3.7 µg/mL, 1.0 µg/mL, 1.6 µg/mL and 0.4 µg/mL.
